SMILES | logP
COc1ccc(S(N)(=O)=O)cc1C(=O)NCC1CCCN1C (stereo unspecified) | 1.01
O=C(NCCN1CCC(n2c(=O)[nH]c3cc(Cl)ccc32)CC1)c1ccc(F)cc1 | 4.02
CCN1CCCC1CNC(=O)c1cc(S(=O)(=O)CC)c(N)cc1OC (stereo unspecified) | 2.42
CCN1CCCC1CNC(=O)c1cc(S(=O)(=O)CC)ccc1OC (stereo unspecified) | 2.05
NC(=O)C1(N2CCCCC2)CCN(CCCC(=O)c2ccc(F)cc2)CC1 | 2.68
C=CCN1CCCC1CNC(=O)c1cc2[nH]nnc2cc1OC (stereo unspecified) | 2.22
COc1cc(C(=O)NCc2ccc(OCCN(C)C)cc2)cc(OC)c1OC | 2.04
OCCN1CCN(CCCN2c3ccccc3Sc3ccc(C(F)(F)F)cc32)CC1 | 4.55
O=c1[nH]c2ccccc2n1C1CCN(CCCC(c2ccc(F)cc2)c2ccc(F)cc2)CC1 | 6.06
COc1cccc(C(=O)NC2C[C@H]3CC[C@@H](C2)N3Cc2ccccc2)c1OC (stereo partly specified) | 3.07
COc1ccc(S(N)(=O)=O)cc1C(=O)NCC1CCCN1Cc1ccc(F)cc1 (stereo unspecified) | 2.08

From the SangsterLogP compilation
